Some test systems named below: BT-549; CCRF-CEM; HCT-116; K562; KM12; LOX IMVI; MCF7; NCI-H23; NCI-H460; OVCAR-5; SF-295; SK-OV-3; SN12C; SNB-19; SR; UACC-257; UO-31; DU-145; SF-268; T47D.
Common to all, as to test: inhibition of tumour cell growth, NCI panel, 48 h

This is an account of results in ChEMBL document CHEMBL1201862, “PubChem BioAssay data set” (2004).

Where “and” joins values, the source holds several entries; their conditions need not be identical. Identical values can stand only once.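 Test compounds were applied to cells in 96-well plates for 48 hours at 5 doses. Here, GI50 denotes the concentration required for 50% inhibition of growth.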 Calls of active or inactive are those of the source. Rule as the data show it: active = GI50 up to about 1.1 µM and inactive = higher.

Take `C[C@@H]1CC[C@@H](C)[C@](C)(CCc2ccoc2)C/C=C\C=C/1C(=O)O`: the GI50 with BT-549, in the assay on CCRF-CEM, with HCT-116, with K562, in the assay on KM12 and in the assay on LOX IMVI was > 50 µM (inactive) throughout. Besides, the GI50 with MCF7 was > 50 µM (inactive); with NCI-H23, 32.1 µM (inactive); in the assay on NCI-H460 it was > 50 µM (inactive); in the assay with OVCAR-5 it was > 50 µM (inactive); in the assay with SF-295, > 50 µM (inactive); in the assay with SK-OV-3, > 50 µM (inactive). The GI50 in the assay with SN12C, with SNB-19, in the assay with SR, in the assay on UACC-257 and in the assay on UO-31 was > 50 µM (inactive) throughout.

Turning to `Nc1ccc2nc(-c3cccc(C(F)(F)F)c3)cc(O)c2c1`, the GI50 with BT-549 was 23.6 µM (inactive); in the assay with CCRF-CEM it was 28.8 µM (inactive); in the assay on KM12 it was 36.2 µM (inactive); in the assay on LOX IMVI it was 51.9 µM (inactive); in the assay on MCF7, 28.2 µM (inactive); in the assay with NCI-H23, 54.6 µM (inactive). The GI50 with NCI-H460 is 29.8 µM (inactive); with OVCAR-5, 43.2 µM (inactive); in the assay with SK-OV-3, 44.8 µM (inactive); with SN12C it was 61.8 µM (inactive); in the assay on SNB-19, 46.1 µM (inactive); with SR it was 25.1 µM (inactive). Besides, the GI50 in the assay with UACC-257 was 51.2 µM (inactive); with UO-31 it was 37.4 µM (inactive).

Regarding `CCOC(=O)c1cc(I)c(-c2cc(C)no2)n1C`, the GI50 in the assay on BT-549 is 64.7 µM (inactive); in the assay on CCRF-CEM it was 27.9 µM (inactive); in the assay on DU-145 it was 89.9 µM (inactive); with HCT-116, 40.4 µM (inactive); in the assay on K562, 26.8 µM (inactive); in the assay with KM12, 21.1 µM (inactive). The GI50 in the assay on LOX IMVI was 37.3 µM (inactive); in the assay on NCI-H23, 44.1 µM (inactive); with NCI-H460, 76.7 µM (inactive); in the assay on OVCAR-5, 93.3 µM (inactive); with SF-268, 60.1 µM (inactive); with SF-295, 55.7 µM (inactive). Further, the GI50 was > 100 µM (inactive) in the assay on SK-OV-3; 21.5 µM (inactive) in the assay on SN12C; > 100 µM (inactive) with SNB-19; 32.2 µM (inactive) in the assay on T47D; 71.6 µM (inactive) with UACC-257; 37.9 µM (inactive) with UO-31.

In the case of `COC(=O)/C=C\n1c(C)cc(=O)[nH]c1=O`, the GI50 in the assay with BT-549 was > 100 µM (inactive); with CCRF-CEM, > 100 µM (inactive); in the assay with HCT-116, > 100 µM (inactive); in the assay with K562, > 100 µM (inactive); in the assay on KM12 it was > 100 µM (inactive); with MCF7, 17.1 µM (inactive). Further, the GI50 is > 100 µM (inactive) with NCI-H23; > 100 µM (inactive) with NCI-H460; > 100 µM (inactive) in the assay on OVCAR-5; > 100 µM (inactive) in the assay with SF-268; > 100 µM (inactive) with SF-295; 67.5 µM (inactive) in the assay with SK-OV-3. The GI50 in the assay on SN12C, in the assay with SNB-19, in the assay with SR, in the assay on T47D, with UACC-257 and in the assay with UO-31 was > 100 µM (inactive) in each case.

As to `COc1cccc2c1CCc1sc(CN3CCN(C)CC3)nc1-2`, the GI50 in the assay with BT-549 is > 100 µM (inactive); in the assay with CCRF-CEM, 24.9 µM (inactive); in the assay with DU-145, > 100 µM (inactive); in the assay on HCT-116, 57.7 µM (inactive); in the assay on K562 it was 31.4 µM (inactive); in the assay on KM12 it was 80.2 µM (inactive). The GI50 is 26.4 µM (inactive) in the assay on MCF7; 84.7 µM (inactive) in the assay with NCI-H23; 54.7 µM (inactive) with NCI-H460; > 100 µM (inactive) with OVCAR-5; > 100 µM (inactive) in the assay on SF-268; 53 µM (inactive) in the assay with SF-295. The GI50 in the assay with SK-OV-3 is > 100 µM (inactive); in the assay with SN12C, > 100 µM (inactive); with SNB-19, > 100 µM (inactive); in the assay with T47D, 33.8 µM (inactive); in the assay with UACC-257, > 100 µM (inactive); in the assay on UO-31, > 100 µM (inactive).

For the compound `COC1OC(COC(=O)NCCCCC(=O)C(F)(F)C(F)(F)C(F)(F)C(F)(F)C(F)(F)C(F)(F)C(F)(F)F)C(O)C(O)C1O` (stereo not given), the GI50 in the assay with BT-549 is 17.6 µM (inactive) and 17.4 µM (inactive); in the assay on HCT-116, 15 µM (inactive) and 19 µM (inactive); with K562, 10.6 µM (inactive) and 16 µM (inactive); with KM12 it was 17.5 µM (inactive) and 18.7 µM (inactive); with LOX IMVI it was 14.2 µM (inactive) and 15.9 µM (inactive); with MCF7 it was 17.6 µM (inactive) and 18.4 µM (inactive). For the same compound, the GI50 in the assay with NCI-H23 is 14.8 µM (inactive) and 17.8 µM (inactive); with NCI-H460, 22.4 µM (inactive) and 16.8 µM (inactive); in the assay on OVCAR-5, 17.8 µM (inactive) and 17.5 µM (inactive); in the assay with SF-268 it was 15.7 µM (inactive) and 18.2 µM (inactive); in the assay on SF-295 it was 20.7 µM (inactive) and 19.5 µM (inactive); in the assay with SK-OV-3 it was 14.2 µM (inactive) and 15.8 µM (inactive). In addition, the GI50 was 19.6 µM (inactive) and 21.4 µM (inactive) with SN12C; 17.8 µM (inactive) and 17.9 µM (inactive) in the assay with SNB-19; 30.3 µM (inactive) and 42.9 µM (inactive) with SR; 19.6 µM (inactive) and 15.2 µM (inactive) in the assay on T47D; 16.9 µM (inactive) and 16.6 µM (inactive) in the assay with UACC-257; 16.8 µM (inactive) and 17.1 µM (inactive) in the assay with UO-31.

As to `CSCCCNC(=O)c1csc(-c2csc(CCNC(=O)CNC(=O)OC(C)(C)C)n2)n1`, the GI50 in the assay on BT-549 is 35.4 µM (inactive); with CCRF-CEM it was 43.1 µM (inactive); in the assay with DU-145 it was > 100 µM (inactive); with HCT-116, > 100 µM (inactive); with K562, > 100 µM (inactive); in the assay with KM12 it was > 100 µM (inactive). Besides, the GI50 in the assay with LOX IMVI was > 100 µM (inactive); in the assay on MCF7 it was 46.6 µM (inactive); in the assay on NCI-H23, 77.6 µM (inactive); in the assay on NCI-H460, > 100 µM (inactive); in the assay with OVCAR-5 it was > 100 µM (inactive); in the assay on SF-268, > 100 µM (inactive). Also, the GI50 in the assay with SF-295, in the assay with SK-OV-3, in the assay with SN12C, in the assay on SNB-19, in the assay on SR and in the assay on UACC-257 was > 100 µM (inactive) each time. Moreover, the GI50 with UO-31 is > 100 µM (inactive).

Regarding `O=c1[nH]nc(-c2ccccc2)n1-n1cnnc1`, the GI50 in the assay with BT-549, with CCRF-CEM, in the assay on HCT-116, in the assay on K562, in the assay on KM12 and in the assay with LOX IMVI was > 100 µM (inactive) in each case. Besides, the GI50 with MCF7, in the assay on NCI-H23, in the assay with NCI-H460, in the assay with OVCAR-5, in the assay with SF-268 and in the assay on SF-295 was > 100 µM (inactive) throughout. The GI50 in the assay on SK-OV-3, in the assay on SN12C, in the assay on SNB-19, in the assay with SR, in the assay with T47D and in the assay on UACC-257 was > 100 µM (inactive) throughout. In addition, the GI50 in the assay with UO-31 is > 100 µM (inactive).

As for `COc1ccc(Cc2c(-c3ccc(C)cc3)n[nH]c(=O)c2C2C(=O)N(c3ccccc3)N=C2c2ccccc2)cc1` (stereo not given), the GI50 in the assay on CCRF-CEM was 32.2 µM (inactive); in the assay with DU-145, 43.7 µM (inactive); with HCT-116, 21.8 µM (inactive); with K562, 28 µM (inactive); with KM12 it was 22.3 µM (inactive); with LOX IMVI, 20.6 µM (inactive). Moreover, the GI50 with MCF7 is 44.5 µM (inactive); in the assay on NCI-H23, 25.8 µM (inactive); with NCI-H460, 30.5 µM (inactive); in the assay on OVCAR-5 it was 33 µM (inactive); with SF-268, 38.9 µM (inactive); in the assay on SF-295, 24.3 µM (inactive). Moreover, the GI50 in the assay on SK-OV-3 is 52.8 µM (inactive); with SN12C, 30.9 µM (inactive); in the assay with SNB-19, 36.1 µM (inactive); in the assay on SR it was 37.1 µM (inactive); in the assay with T47D it was > 65.6 µM (inactive); in the assay with UACC-257 it was 29.3 µM (inactive). For the same compound, the GI50 in the assay on UO-31 is 39.7 µM (inactive).

Take `CC1=NN2C=Nc3c(c(-c4ccc(Cl)cc4)cn3-c3ccc(C)cc3)C2N1` (stereo not given): the GI50 was > 100 µM (inactive) in the assay with BT-549; > 100 µM (inactive) in the assay on CCRF-CEM; > 100 µM (inactive) in the assay with DU-145; 46.2 µM (inactive) in the assay on HCT-116; > 100 µM (inactive) with K562; > 100 µM (inactive) in the assay on LOX IMVI. Also, the GI50 is > 100 µM (inactive) in the assay on MCF7; > 100 µM (inactive) with NCI-H23; 56.6 µM (inactive) with NCI-H460; > 100 µM (inactive) in the assay on OVCAR-5; 71.1 µM (inactive) in the assay on SF-268; 39.3 µM (inactive) in the assay with SF-295. The GI50 is 61.9 µM (inactive) in the assay on SK-OV-3; > 100 µM (inactive) with SN12C; 54.5 µM (inactive) in the assay with SNB-19; 0.288 µM (active) in the assay with SR; > 100 µM (inactive) in the assay with UACC-257; > 100 µM (inactive) in the assay on UO-31.

As to `Cc1cc(C)n2c(nc3ccccc32)c1C#N`, the GI50 in the assay with BT-549 is > 100 µM (inactive); in the assay on CCRF-CEM it was > 100 µM (inactive); in the assay on DU-145 it was > 100 µM (inactive); in the assay on HCT-116 it was 54.1 µM (inactive); in the assay on K562 it was > 100 µM (inactive); in the assay on LOX IMVI, > 100 µM (inactive). Moreover, the GI50 was > 100 µM (inactive) in the assay with MCF7; > 100 µM (inactive) with NCI-H23; > 10 µM (inactive) with NCI-H460; > 100 µM (inactive) in the assay with OVCAR-5; > 100 µM (inactive) with SF-295; > 100 µM (inactive) in the assay with SK-OV-3. The GI50 with SN12C, with SNB-19, in the assay on T47D, in the assay on UACC-257 and with UO-31 was > 100 µM (inactive) throughout.
